Measured values taken from the supplement of paper PMC12420376.

System: KURAMOCHI
Test: cancer cell viability relative to untreated control; higher = less cytotoxic
Settings: 72 h
Description: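 KURAMOCHI or OVCAR8 cells were grown in monoculture or in co-culture with WI38 or patient-derived 030F fibroblasts and treated for 72 h with a dose matrix of carboplatin combined with birinapant or vorinostat (doses in nM). Cancer cell viability was measured by CK8/18 immunofluorescence imaging and expressed as % of untreated control, given as mean with SD.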

O=C(O)C1(C(=O)O)CCC1.[NH2-].[NH2-].[Pt+2] [Carboplatin] + CC[C@H](NC(=O)[C@H](C)NC)C(=O)N1C[C@@H](O)C[C@H]1Cc1c(-c2[nH]c3cc(F)ccc3c2C[C@@H]2C[C@H](O)CN2C(=O)[C@H](CC)NC(=O)[C@H](C)NC)[nH]c2cc(F)ccc12 [Birinapant]
cancer cell viability [%]
Settings	partner drug concentration 0 nM	partner drug concentration 0.1 nM	partner drug concentration 1 nM	partner drug concentration 10 nM	partner drug concentration 100 nM	partner drug concentration 1000 nM
carboplatin concentration 10 nM, co-cultured fibroblast: 030F	95.1	97.5	93.4	82.9	81.5	84.3
carboplatin concentration 10 nM, co-cultured fibroblast: WI38	93.7	94.4	87.7	85	80.4	77.7
carboplatin concentration 10 nM, co-cultured fibroblast: none (monoculture)	101	93.7	90.3	79.5	73.8	67.6
carboplatin concentration 100 nM, co-cultured fibroblast: 030F	95.5	92	94.7	95.6	84.5	85.6
carboplatin concentration 100 nM, co-cultured fibroblast: WI38	91.6	88.5	90.5	98.4	86.1	82.2
carboplatin concentration 100 nM, co-cultured fibroblast: none (monoculture)	95.7	89.2	91.7	97.3	66.7	67.3
carboplatin concentration 1000 nM, co-cultured fibroblast: 030F	91.6	92.2	100	91.7	82.9	87.1
carboplatin concentration 1000 nM, co-cultured fibroblast: WI38	94.4	99.2	98.2	97.8	88.5	77.5
carboplatin concentration 1000 nM, co-cultured fibroblast: none (monoculture)	102	95	90.7	90.3	74.3	61
carboplatin concentration 1e+05 nM, co-cultured fibroblast: 030F	44.4	50.4	60.3	52.9	40.4	54.9
carboplatin concentration 1e+05 nM, co-cultured fibroblast: WI38	31.1	41.9	48	43.7	36.4	44.2
carboplatin concentration 1e+05 nM, co-cultured fibroblast: none (monoculture)	26.6	33.6	38.4	37.9	18.6	24.4
carboplatin concentration 10000 nM, co-cultured fibroblast: 030F	51.7	80.8	88.2	88.8	72.4	71.7
carboplatin concentration 10000 nM, co-cultured fibroblast: WI38	40.7	80	83.2	91.4	74.1	69.9
carboplatin concentration 10000 nM, co-cultured fibroblast: none (monoculture)	23.9	95.4	72.3	84.6	57.4	51.8

O=C(O)C1(C(=O)O)CCC1.[NH2-].[NH2-].[Pt+2] [Carboplatin] + O=C(CCCCCCC(=O)Nc1ccccc1)NO [Vorinostat]
cancer cell viability [%]
Settings	partner drug concentration 0 nM	partner drug concentration 1 nM	partner drug concentration 10 nM	partner drug concentration 100 nM	partner drug concentration 1000 nM	partner drug concentration 10000 nM
carboplatin concentration 10 nM, co-cultured fibroblast: 030F	95.1	107	95.5	77.5	36.9	4.67
carboplatin concentration 10 nM, co-cultured fibroblast: WI38	93.7	107	97.6	70	26.5	5.05
carboplatin concentration 10 nM, co-cultured fibroblast: none (monoculture)	101	111	101	67.6	31.1	-0.479
carboplatin concentration 100 nM, co-cultured fibroblast: 030F	95.5	106	102	75.9	28.8	3.53
carboplatin concentration 100 nM, co-cultured fibroblast: WI38	91.6	101	91.2	63.2	21	5.14
carboplatin concentration 100 nM, co-cultured fibroblast: none (monoculture)	95.7	101	92.7	63.3	24.3	0.0805
carboplatin concentration 1000 nM, co-cultured fibroblast: 030F	91.6	85.7	89.1	58.1	31.1	6.6
carboplatin concentration 1000 nM, co-cultured fibroblast: WI38	94.4	88.8	88.6	52	18.7	5.75
carboplatin concentration 1000 nM, co-cultured fibroblast: none (monoculture)	102	103	91.6	54.2	20.8	1.21
carboplatin concentration 1e+05 nM, co-cultured fibroblast: 030F	44.4	47.7	47.7	38	39	1.97
carboplatin concentration 1e+05 nM, co-cultured fibroblast: WI38	31.1	39.3	39.4	30.1	20.6	0.366
carboplatin concentration 1e+05 nM, co-cultured fibroblast: none (monoculture)	26.6	37.6	37	22.8	21.3	-3.77
carboplatin concentration 10000 nM, co-cultured fibroblast: 030F	51.7	72.2	71.1	55.5	45	3.59
carboplatin concentration 10000 nM, co-cultured fibroblast: WI38	40.7	72	68	46.1	28.8	4.43
carboplatin concentration 10000 nM, co-cultured fibroblast: none (monoculture)	23.9	80.8	62.8	49.1	27.5	-0.104
